# US20230158091A1, “C[…] CARRIER” (New York Medical College, priority 2020, published 2023)
# “Also recorded” adds a separate entry of the source. Like-named read-outs stand apart in the source and are kept apart here.
# Tests used:
# [1] = tested on: rats with cortical contusion injury (TBI); assay: Cortical contusion injury, hippocampal cell counts after H&E staining; assay type: in vivo, rat
# Method: (§1) Cortical Contusion Injury. Adult male and female Sprague-Dawley and Wistar rats (225-350 gm) received a moderately severe cortical impact injury under anesthesia with a controlled weight drop apparatus mounted on a stereotactic apparatus. Anesthesia was induced with ketamine/xylazine (60/6 mg/kg i.p.). A midline incision was performed to expose the skull. The dura was exposed with a 4.4-mm craniotomy centered at 1.4-mm posterior and 2.4-mm lateral to the bregma for placement of the 4-mm diameter foot-plate of the contusion apparatus. Contusion injury force of 600 g/cm was produced with a 20-g weight and dropping distance of 30-cm. The 20-g weight was released into a vertical guided tube that strikes the foot plate positioned at the end of the tube which is in contact with the dura. To avoid brain penetration, the foot-plate was prevented by a guide from moving greater than 2.5-mm into the dura.
# (§2) Drug Administration. Rats in the TBI+CBD group received the gelfoam sponge infused with CBD (20.0 mg/ml) directly to the open contusion site overlying the dura within 2 min after the weight was removed from the apparatus. CBD was also administered systemically 10 min following surgery at 40 mg/kg followed by 20 mg/kg for all other injection days. TBI rats received gelfoam with coconut or olive oil directly onto the open contusion site overlying the dura following their respective surgical contusions. TBI rats also received vehicle, either coconut oil, olive oil, or PBS systemically at equal volumes that were administered to CBD treated animals according to weight (0.1-0.4 cc).
# In the contralateral CAL injured cells were intermingled among healthy appearing round cell bodies. […] In contrast to the TBI+vehicle group, the ipsilateral hippocampus was predominantly intact in all CBD treated animals but with disproportional levels of injured cells throughout the subfields. There were varied numbers of pyknotic, acidophilic, irregular shaped CA1 and CA3a (not illustrated) neurons.
# Since 9 of 13 animals from the TBI+vehicle group had spared ipsilateral hippocampal tissue, counting of injured vs. healthy appearing cells of the CA1 subregion was carried out in a subset of animals from the TBI+vehicle group and compared with the CBD treated group to estimate whether injury on one side is related to the amount of injury on the other side. Measurements of the CA1 area and total volumetric measurements of the ipsilateral hemisphere were used for correlating ipsilateral injury with ipsilateral and contralateral hippocampal cellular injury.
# [2] = tested on: rats with cortical contusion injury (TBI); assay: Cortical contusion injury (weight drop TBI), lesion histology; assay type: in vivo, rat
# Method: as §1, §2
# After direct delivery of the CBD internal gelatinized matrix, dental acrylic was used to close the wound. Animals became active 30-40 min following surgery.
# FIG. 5 depicts schematic overview perspectives of an internal CBD absorbable medical carrier applied to the internal brain wound in the rat with systemic supplementation.
# [3] = tested on: rats with cortical contusion injury (TBI); assay: Beam balance test (vestibulomotor function) after TBI; assay type: in vivo, rat; details: compared to TBI untreated rats; day 14 through day 28
# Method: as §1
# Drug Administration. Rats in the TBI+CBD group received the gelfoam sponge infused with CBD (20.0 mg/ml) directly to the open contusion site overlying the dura within 2 min after the weight was removed from the apparatus. CBD was also administered systemically 10 min following surgery at 40 mg/kg followed by 20 mg/kg for all other injection days. […]
# Vestibulomotor function was determined with the beam balance test in the TBI untreated and TBI+CBD treated rats. […]
# [4] = tested on: rats with cortical contusion injury (TBI); assay: Novel Object Recognition test after TBI; assay type: in vivo, rat
# Method: as §1, §2
# The Novel Object Recognition test was utilized to evaluate the short-term and working memory of the TBI+CBD group compared to control TBI levels at 27-29 days and naive untreated young rats. Following habituation, animals could explore an open field with two objects for 3 consecutive days by introducing two same objects on day 1 and adding a novel object on days 2 and 3 without visual cues.
# [5] = cited from earlier work
# [6] = tested on: rats with cortical contusion injury (TBI); assay: Spontaneous alternating T-maze after TBI; assay type: in vivo, rat
# Method: as §1, §2
# The spontaneous alternating T-maze was utilized at 3 and 28 days following TBI or TBI+CBD in order to assess spatial sense, memory and cognitive ability. Naïve untreated rats spontaneously alternated between left and right arms. There was a tendency of asymmetry to the left arm, but the number of entries was not great enough to exclude the possibility that the difference was due to random sampling variability (L: 6.3±1.7 vs. R: 4.7±0.52, N=10, two-tailed t=2.1, df=18, p=0.05). At 3 days following TBI to the left hemisphere, arm entry was impaired.
# [7] = tested on: rats with spinal cord contusion (SCI); assay: Spinal cord contusion (SCI), lesion and locomotor recovery; assay type: in vivo, rat
# From the text: FIG. 6 depicts schematic overview perspectives of an internal CBD absorbable medical carrier applied to the internal wound in the rat with systemic supplementation with a spinal cord contusion (SCI).
# [8] = comparison of both hemispheres, p=0.037
smiles,measurement,setting,value
"C=C(C)[C@@H]1CCC(C)=C[C@H]1c1c(O)cc(CCCCC)cc1O [CBD, cannabidiol]","hippocampal injury at the cellular level (H&E, in words)",[1]; CBD local and peripheral delivery system,partially attenuated
same,contralateral hippocampus hilus irregular stained/injured cells,"[1]; TBI+vehicle 30.4 4.17, p=0.002",7.63±1.86
same,contralateral hippocampus CA1 irregular stained/injured cells,"[1]; TBI+vehicle 53.3±10.9, p=0.045",14.22±2.2
same,"number of injured CA1 neurons, contralateral side (comparison of both hemispheres)",[1]; [8],14.21±2.29
same,"number of injured CA1 neurons, ipsilateral side",[1]; [8],172.75±70
same,percent of CA1 contralateral injured cell counts relative to TBI+vehicle,[1]; relative to TBI+vehicle,26.7±4.37%
same,ratio of ipsilateral injured CA1 neurons to healthy appearing CA1 pyramidal neurons,[1]; versus TBI+vehicle,unchanged
same,"area affected, normalized to TBI+vehicle treated group","[2]; Bregma AP 1.2 to −6.8, local sponge plus systemic CBD, p=0.0008",34.04±6.38%
same,ipsilateral cortical/hippocampal lesion volume,"[2]; approximated from 12 levels, 4 weeks after TBI, gelfoam sponge with CBD 20.0 mg/ml at contusion site plus systemic CBD 40 then 20 mg/kg, TBI+vehicle 69.85±7.2",21.4±3.5 mm^3
same,lesion size after brain contusion (in words),[2]; compared to contusion alone / TBI+vehicle,reduced ipsilateral lesion size; also recorded: decreased the size of the ipsilateral lesion
same,total anterior to posterior lesion measurement,"[2]; local sponge plus systemic CBD, TBI control 6.586±0.2, p=0.008",5.867±0.17 mm
same,lesion area at posterior levels (Bregma AP: −6.8 or further),"[2]; local sponge plus systemic CBD, comparison value 1.22±0.35, p=0.347",0.92±0.17 mm^2
same,beam balance performance / vestibulomotor function (in words),[3],improved balance and locomotor function within a few days; also recorded: significant improvement
same,overall mobility,[4]; 27-29 days post-TBI,greater than TBI rats and similar to naïve untreated controls
same,speed of travel,"[4]; 27-29 days post-TBI, p=0.032",greater speed than TBI rats
same,distance travelled,"[4]; averaged from days 2+3 of testing, 27-29 days post-TBI, p=0.03",greater distance than TBI+vehicle treated rats
same,number of episodes of interacting with old and novel objects,"[4]; compared to TBI rats, not significantly different from naïve rats",much greater
same,time spent with the novel object,"[4]; compared to TBI, not significantly different from naïve rats",much greater
same,absorbed in the body,[5]; ingestion,5-20%
same,absorbed in the body,[5]; vaping or smoking,30-60%
same,time to choose right or left,"[6]; 3 or 28 days post-injury, not significantly different from TBI+vehicle",13 to 33 s
same,asymmetry of arm entry to the left,[6]; 3 days following TBI to the left hemisphere,highly significant
same,percent alternating in T-maze,"[6]; 28 days after TBI, TBI 17.5±11.8%",52.5±8.53%
same,spontaneous alternation (in words),[6]; after 28 days,significant increase in percent alternating
same,locomotor recovery after spinal cord contusion (in words),"[7]; aged female rats, weeks 5 and 6 with continued CBD treatment",significant locomotor improvement
same,"spinal cord lesion area / tissue preservation (Luxol Fast Blue, in words)",[7]; internal CBD carrier plus 1 week of daily CBD injections and 3 weeks of intermittent CBD treatment,reduced volumetric lesion area
